From patent US20250235545A1, “POLYPEPTIDE CONJUGATE AND USE THEREOF” (SHANGHAI CHIXI BIOMEDICAL TECHNOLOGY CO., LTD, priority 2024, published 2025)
Converted amounts (≈) assume the structure as drawn. Read-outs that look alike come from different tables or passages of the source. Where a SMILES comes first, the peptide text is derived from it. The star is where a group is joined. X6 = CCCCCN(CCc1c2c(nc3ccccc13)-c1cc3c(c(=O)n1C2)COC(=O)[C@]3(O)CC)*; X3 = CC[C@@]1(O)C(=O)OCc2c1cc1n(c2=O)Cc2c-1nc1ccccc1c2CCN(C1CC1)*; Propanoyl(3-maleimido) = O=C1C=CC(=O)N1CCC(=O)*; PEG6 = NCCOCCOCCOCCOCCOCCOCCC(=O)O

Legend:
[1] = tested on: A2780 ovarian cancer tumor model; assay: Efficacy in animal model of A2780 ovarian cancer, 30 mg/kg once a week for two weeks (Example 41); assay type: in vivo, BALB/c mice
Experimental: Test objective: To further compare the antitumor efficacy of different polypeptide Linkers in an animal tumor model of A2780 ovarian cancer.
(§1) Test drug: Polypeptide conjugate and normal saline control group.
8×10^6 corresponding cells were injected into right axillas of nude mice subcutaneously. […] The negative control group was administered normal saline. Administration was performed once a week for two weeks.

[2] = Homogenate activation efficiency, heart tissue (Examples 28, 37); assay type: in vitro ADME; conditions: pH 5.0, 37° C., 2 h; Table 5
[3] = Tumor homogenate activation efficiency, small cell lung cancer tissue (Example 28); assay type: in vitro ADME; conditions: pH 5.0, 37° C., 2 h; Table 5
Experimental: (§2) Buffer preparation: 50 mM PH buffer (MES), 250 mM NaCl, pH adjusted to 5.0 with 0.5 M of sodium hydroxide.
(§3) The polypeptide conjugate was prepared into a 1 mg/ml solution with pH 5.0 buffer, 100 μg of tumor tissue homogenate was added, (the tumor tissue homogenate was the homogenate of tumor tissues prepared with a Jingxin F6/10 handheld homogenizer), and the solution was placed at 37° C. for 2 h. The tumor tissue homogenate could effectively activate the polypeptide conjugate and release Belotecan, and the activation efficiencies of the drugs in tumor tissues were compared by high-performance liquid chromatography (HPLC) allowing determination of a decrease in the compounds and an increase in Belotecan:
(§4) Release percentage=peak area of Belotecan/total peak area of Belotecan and all other Belotecan-containing compounds

[4] = MTD determination in mice (Examples 27, 36, 44); assay type: in vivo; conditions: female, mouse, in vivo; mice, monitored for 14 d; Table 4
Excerpt: Test animals: 6-8 weeks old mice, all female; mice were grouped randomly, with six mice in each group, administered with drugs at different concentration gradients separately and monitored for 14 d. A mouse was euthanized at a loss of 20% of its initial weight and deemed to have died of poisoning.

[5] = tested on: SKBR3 (breast cancer tissue); assay: cells; assay type: cell-based; conditions: CCK8, 48 h; Table 1
In short: (§5)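 Proliferation was assessed by seeding 5,000 cells per well onto medium already containing the test drug at various concentrations. Plates stood 48 h at 37° C, then took CCK8 staining (~2 h) before A450 measurement. Median inhibitory concentrations come from survival relative to 0.1% DMSO controls.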

[6] = tested on: SJSA-1 (sarcoma tissue); assay: cells; assay type: cell-based; conditions: CCK8, 48 h; Table 1
In short: as §5

[7] = tested on: A549 (non-small cell lung cancer); assay: cells; assay type: cell-based; conditions: CCK8, 48 h; Table 1
In short: as §5

[8] = tested on: A2780 (ovarian cancer); assay: cells; assay type: cell-based; conditions: CCK8, 48 h; Table 1
In short: as §5

[9] = Tumor homogenate activation efficiency, non-small cell lung cancer tissue (Examples 28, 37); assay type: in vitro ADME; conditions: pH 5.0, 37° C., 2 h; Table 5
Experimental: as §2, §3, §4
as §3, with “HPLC” for “high-performance liquid chromatography (HPLC)”, “Belotecan: […]” for “Belotecan:”

[10] = tested on: colo320 colorectal cancer tumor model
In short: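 Dosing was once a week for four weeks, with saline as control, in randomized groups of three mice. Groups were formed after subcutaneous colo320 xenografts (7.5×10^6 cells, right chest) grew to ≥120 mm^3 in female 6–8-week-old BALB/c nude mice.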

[11] = Tumor homogenate activation efficiency, breast cancer tissue (Examples 28, 37); assay type: in vitro ADME; conditions: pH 5.0, 37° C., 2 h; Table 5
Experimental: as §2, §3, §4
as §3, with “HPLC” for “high-performance liquid chromatography (HPLC)”, “Belotecan: […]” for “Belotecan:”

[12] = Tumor homogenate activation efficiency, ovarian cancer tissue (Examples 28, 37); assay type: in vitro ADME; conditions: pH 5.0, 37° C., 2 h; Table 5
Experimental: as §2, §3, §4
as §3, with “HPLC” for “high-performance liquid chromatography (HPLC)”, “Belotecan: […]” for “Belotecan:”

[13] = tested on: sarcoma SJSA-1 tumor model; conditions: Table 2
In short: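 Female BALB/c nude mice (6-8 weeks) bearing subcutaneous right-chest SJSA-1 xenografts from 2×10^7 cells were randomized, three per group, once tumors reached at least 100 mm^3. Treatment given once a week for three weeks starting day 1; saline controls.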

[14] = Tumor homogenate activation efficiency, sarcoma tissue (Examples 28, 37); assay type: in vitro ADME; conditions: pH 5.0, 37° C., 2 h; Table 5
Experimental: as §2, §3, §4
as §3, with “HPLC” for “high-performance liquid chromatography (HPLC)”, “Belotecan: […]” for “Belotecan:”

[15] = tested on: sarcoma SJSA-1 tumor model; assay: Efficacy in animal model of sarcoma SJSA-1, 30 mg/kg once a week for two weeks (Example 40); assay type: in vivo, BALB/c mice; conditions: 30 mg/kg once a week for two weeks
Experimental: Test objective: To further compare the antitumor efficacy of different polypeptide Linkers in an animal tumor model of sarcoma SJSA-1.
as §1
The control group was administered normal saline. Administration was performed once a week for two weeks.

[16] = 15 mg/kg once a week for four weeks, Table 3
[17] = 45 mg/kg once a week for four weeks, Table 3
[18] = 15 mg/kg once a week for three weeks
[19] = 45 mg/kg once a week for three weeks

## CCCCCN(CCc1c2c(nc3ccccc13)-c1cc3c(c(=O)n1C2)COC(=O)[C@]3(O)CC)C(=O)CNC(=O)[C@H](CC(N)=O)NC(=O)[C@H](C)NC(=O)[C@H](C)NC(=O)CCOCCOCCOCCOCCOCCOCCNC(=O)CCN1C(=O)C=CC1=O [MI-6PEG-AANG-D4] ({Propanoyl(3-maleimido)-PEG6}-AANG-X6)
[1]; Day 1
  A2780 (ovarian cancer) mean tumor volume (mm^3) Day 1: 138.58 mm^3
[1]; Day 4
  A2780 (ovarian cancer) mean tumor volume (mm^3) Day 4: 278.49 mm^3
[1]; Day 7
  A2780 (ovarian cancer) mean tumor volume (mm^3) Day 7: 624.53 mm^3
[1]; Day 10
  A2780 (ovarian cancer) mean tumor volume (mm^3) Day 10: 791.18 mm^3
[1]; Day 14
  A2780 (ovarian cancer) mean tumor volume (mm^3) Day 14: 977.54 mm^3
  Growth rate (%) of A2780 (ovarian cancer) on Day 14: 705.40%
  Mouse weight (%) on Day 14: +9.6%
[2]
  Percentage of release efficiency (%) Heart tissue: 2.4%
[3]
  Percentage of release efficiency (%) Small cell lung cancer tissue (NCI-H841): 67.2%
[4]
  MTD at 14 d: 350 mg/kg
[5]
  IC50 SKBR3 (breast cancer tissue): 4.54 µg/mL (≈ 3.6 µM)
[6]
  IC50 SJSA-1 (sarcoma tissue): 2.52 µg/mL (≈ 2 µM)
[7]
  IC50 A549 (non-small cell lung cancer): 6.37 µg/mL (≈ 5.05 µM)
[8]
  IC50 A2780 (ovarian cancer): 4.88 µg/mL (≈ 3.87 µM)
[9]
  Percentage of release efficiency (%) Non-small cell lung cancer tissue (A549): 78.7%
[10]; [16]
  Mouse weight (%): +40%
  colo320 (colorectal cancer cell) growth rate (%): 870.11%
  colo320 (colorectal cancer cell) mean tumor volume (mm^3): 963.7 mm^3
[10]; [17]
  Mouse weight (%): +18%
  colo320 (colorectal cancer cell) growth rate (%): 544.80%
  colo320 (colorectal cancer cell) mean tumor volume (mm^3): 603.4 mm^3
[11]
  Percentage of release efficiency (%) Breast cancer tissue (SKBR3): 80.7%
[12]
  Percentage of release efficiency (%) Ovarian cancer tissue (A2780): 86.7%
[13]; [18]
  Mouse weight (%): +27%
  SJSA-1 (sarcoma tissue) mean tumor volume (mm^3): 1305.6 mm^3
  SJSA-1 (sarcoma) Growth rate (%): 1081.87%
[13]; [19]
  Mouse weight (%): +26%
  SJSA-1 (sarcoma tissue) mean tumor volume (mm^3): 994.5 mm^3
  SJSA-1 (sarcoma) Growth rate (%): 842.80%
[14]
  Percentage of release efficiency (%) Sarcoma tissue (SJSA1): 72.4%
[15]; Day 1
  SJSA-1 (sarcoma tissue) mean tumor volume (mm^3) Day 1: 131.57 mm^3
[15]; Day 4
  SJSA-1 (sarcoma tissue) mean tumor volume (mm^3) Day 4: 385.46 mm^3
[15]; Day 7
  SJSA-1 (sarcoma tissue) mean tumor volume (mm^3) Day 7: 607.62 mm^3
[15]; Day 10
  SJSA-1 (sarcoma tissue) mean tumor volume (mm^3) Day 10: 847.33 mm^3
[15]; Day 14
  Mouse weight (%) on Day 14: +4.1%
  SJSA-1 (sarcoma tissue) growth rate (%) on Day 14: 941.81%
  SJSA-1 (sarcoma tissue) mean tumor volume (mm^3) Day 14: 1239.14 mm^3

## CC[C@@]1(O)C(=O)OCc2c1cc1n(c2=O)Cc2c-1nc1ccccc1c2CCN(C(=O)CNC(=O)[C@H](CC(N)=O)NC(=O)[C@H](C)NC(=O)[C@H](C)NC(=O)CCOCCOCCOCCOCCOCCOCCNC(=O)CCN1C(=O)C=CC1=O)C1CC1 [MI-6PEG-AANG-D6] ({Propanoyl(3-maleimido)-PEG6}-AANG-X3)
[1]; Day 14
  Mouse weight (%) on Day 14: +8.5%
[2]
  Percentage of release efficiency (%) Heart tissue: 2.5%
[3]
  Percentage of release efficiency (%) Small cell lung cancer tissue (NCI-H841): 76%
[4]
  MTD at 14 d: 200 mg/kg
[5]
  IC50 SKBR3 (breast cancer tissue): 1.81 µg/mL (≈ 1.47 µM)
[6]
  IC50 SJSA-1 (sarcoma tissue): 0.49 µg/mL (≈ 0.398 µM)
[7]
  IC50 A549 (non-small cell lung cancer): 1.55 µg/mL (≈ 1.26 µM)
[8]
  IC50 A2780 (ovarian cancer): 0.77 µg/mL (≈ 0.625 µM)
[9]
  Percentage of release efficiency (%) Non-small cell lung cancer tissue (A549): 73.1%
[10]; [16]
  Mouse weight (%): +27%
[10]; [17]
  Mouse weight (%): +17%
[10]; Table 14 (Example 43), dose 45 mg/kg, once a week for four weeks, BALB/c mice
  Mouse weight (%): +17%
[11]
  Percentage of release efficiency (%) Breast cancer tissue (SKBR3): 82.1%
[12]
  Percentage of release efficiency (%) Ovarian cancer tissue (A2780): 75.9%
[13]; [18]
  Mouse weight (%): +24%
[13]; [19]
  Mouse weight (%): +3%
[14]
  Percentage of release efficiency (%) Sarcoma tissue (SJSA1): 79.9%
[15]; Day 14
  Mouse weight (%) on Day 14: −0.6%
